The NIST ThermoML archive (doi:10.1016/j.jct.2016.07.020)

Assay: mn = molality of the nth substance listed, in mol/kg
Settings: 101.3 kPa, Liquid, Capillary tube (Ostwald / Ubbelohde) method

OC[C@@H](O)[C@H](O)[C@@H](O)CO [xylitol] + O
viscosity [mPa·s]
Settings | m1 = 0.0399 | m1 = 0.0599 | m1 = 0.08 | m1 = 0.0999 | m1 = 0.1196 | m1 = 0.1396 | m1 = 0.1593 | m1 = 0.1801
288.15 K | 1.16 | 1.17 | 1.179 | 1.188 | 1.197 | 1.206 | 1.214 | 1.223
298.15 K | 0.905 | 0.913 | 0.919 | 0.926 | 0.933 | 0.939 | 0.947 | 0.954
308.15 K | 0.73 | 0.736 | 0.742 | 0.746 | 0.751 | 0.757 | 0.762 | 0.766
318.15 K | 0.604 | 0.608 | 0.612 | 0.616 | 0.621 | 0.625 | 0.63 | 0.634

O=C[C@H](O)[C@@H](O)[C@H](O)CO [D-xylose] + O
viscosity [mPa·s]
Settings | m1 = 0.0399 | m1 = 0.0601 | m1 = 0.0797 | m1 = 0.0993 | m1 = 0.1195 | m1 = 0.1391 | m1 = 0.1583 | m1 = 0.1783
288.15 K | 1.155 | 1.163 | 1.173 | 1.181 | 1.188 | 1.197 | 1.206 | 1.214
298.15 K | 0.901 | 0.909 | 0.914 | 0.92 | 0.927 | 0.932 | 0.937 | 0.944
308.15 K | 0.727 | 0.733 | 0.739 | 0.742 | 0.747 | 0.751 | 0.756 | 0.762
318.15 K | 0.603 | 0.607 | 0.61 | 0.614 | 0.618 | 0.623 | 0.626 | 0.63

OC[C@@H](O)[C@H](O)[C@H](O)[C@@H](O)CO [dulcitol] + O
viscosity [mPa·s]
Settings | m1 = 0.04 | m1 = 0.0603 | m1 = 0.0797 | m1 = 0.1002 | m1 = 0.1196 | m1 = 0.14 | m1 = 0.1597 | m1 = 0.1795
288.15 K | 1.161 | 1.172 | 1.183 | 1.191 | 1.202 | 1.213 | 1.221 | 1.229
298.15 K | 0.904 | 0.912 | 0.919 | 0.926 | 0.933 | 0.939 | 0.948 | 0.953
308.15 K | 0.73 | 0.736 | 0.741 | 0.746 | 0.751 | 0.756 | 0.761 | 0.766
318.15 K | 0.602 | 0.607 | 0.61 | 0.614 | 0.617 | 0.623 | 0.626 | 0.628

O=C[C@H](O)[C@@H](O)[C@@H](O)[C@H](O)CO [(+)-galactose] + O
viscosity [mPa·s]
Settings | m1 = 0.0402 | m1 = 0.0601 | m1 = 0.0792 | m1 = 0.0992 | m1 = 0.1199 | m1 = 0.139 | m1 = 0.1594 | m1 = 0.1793
288.15 K | 1.158 | 1.168 | 1.179 | 1.19 | 1.203 | 1.214 | 1.224 | 1.237
298.15 K | 0.905 | 0.913 | 0.92 | 0.929 | 0.938 | 0.945 | 0.953 | 0.961
308.15 K | – | 0.737 | 0.743 | 0.749 | 0.755 | 0.76 | 0.766 | 0.773
318.15 K | 0.606 | 0.611 | 0.615 | 0.618 | 0.624 | 0.626 | 0.631 | 0.635

O=C1O[C@H]([C@@H](O)CO)C(O)=C1O [L-ascorbic acid] + O
viscosity [mPa·s]
Settings | 288.15 K | 298.15 K | 308.15 K | 318.15 K
m1 = 0.05 | 1.163 | 0.91 | 0.732 | 0.605
m1 = 0.15 | 1.21 | 0.944 | 0.759 | 0.625
m1 = 0.25 | 1.257 | 0.979 | 0.787 | 0.646
m1 = 0.35 | 1.305 | 1.017 | 0.813 | 0.669

O=C[C@H](O)[C@@H](O)[C@H](O)[C@H](O)CO [D-glucose] + O
viscosity [mPa·s]
Settings | m1 = 0.04 | m1 = 0.0599 | m1 = 0.0797 | m1 = 0.0999 | m1 = 0.1197 | m1 = 0.14 | m1 = 0.1598 | m1 = 0.1797
288.15 K | 1.161 | – | 1.181 | 1.193 | 1.204 | 1.216 | 1.227 | 1.241
298.15 K | 0.907 | 0.915 | 0.924 | 0.932 | 0.94 | 0.947 | 0.954 | 0.961
308.15 K | 0.733 | 0.737 | 0.744 | 0.751 | 0.756 | 0.762 | 0.768 | 0.774
318.15 K | 0.606 | 0.61 | 0.614 | 0.62 | 0.624 | 0.629 | 0.636 | 0.64

CO[C@H]1O[C@H](CO)[C@@H](O)[C@H](O)[C@H]1O [methyl-α-D-glucopyranoside] + O
viscosity [mPa·s]
Settings | m1 = 0.0397 | m1 = 0.06 | m1 = 0.08 | m1 = 0.0999 | m1 = 0.1191 | m1 = 0.1402 | m1 = 0.1599 | m1 = 0.1801
288.15 K | 1.159 | 1.172 | 1.183 | 1.194 | 1.206 | 1.218 | 1.23 | 1.241
298.15 K | 0.906 | 0.916 | 0.925 | 0.931 | 0.94 | 0.948 | 0.956 | 0.964
308.15 K | 0.732 | 0.739 | 0.745 | 0.751 | 0.757 | 0.764 | 0.77 | 0.777
318.15 K | 0.606 | 0.611 | 0.616 | 0.621 | 0.625 | 0.631 | 0.636 | 0.64

OC[C@H]1OC(O)C[C@@H](O)[C@@H]1O (stereo partly drawn) [2-deoxy-D-glucose] + O
viscosity [mPa·s]
Settings | m1 = 0.04 | m1 = 0.06 | m1 = 0.0797 | m1 = 0.1001 | m1 = 0.1201 | m1 = 0.1399
288.15 K | 1.161 | 1.171 | 1.18 | 1.191 | 1.201 | 1.213
298.15 K | 0.907 | 0.913 | 0.919 | 0.928 | 0.936 | 0.945
308.15 K | 0.73 | 0.736 | 0.742 | 0.749 | 0.754 | 0.761
318.15 K | 0.605 | 0.609 | 0.615 | 0.619 | 0.624 | 0.629
